{"source": "ChEMBL document CHEMBL3045868", "about": "“Synthesis and antibacterial activities of para-alkoxy phenyl--ketoaldehyde derivatives” (Med Chem Res, 2013)", "test_system": "Staphylococcus aureus", "test": "Antibacterial activity against Staphylococcus aureus clinical isolate 22 assessed as growth inhibition at pH 7 after 16 to 18 hr by NCCLS agar dilution method", "type": "functional"}
{"smiles": "CO/N=C/CC(=O)c1ccc(OC)cc1", "values": [{"measurement": "MIC", "value": 16, "unit": "µg/mL"}]}
